The values below come from patent US4485110A, “β-Lactam compounds, and use” (priority 1980, dated 1984).

Type in all cases: cell-based
Assay [1] has as its system β-lactamase producing organisms. Put plainly: β-Lactamase inhibitory activity: synergistic properties. To be noted: addition of the compound, Tables 2-5. From the text: (§1) These tables show the MIC values of amoxycillin, cephaloridine, ticarcillin and apalcillin against a number of β-lactamase producing organisms.
In assay [2] the test system is S. aureus MB9. The assay can be described thus: β-Lactamase inhibitory activity: antibiotic MIC alone or in combination. Conditions: compound alone, 5.0 μg/ml.
Description: as §1

Assay [3] deals with S. aureus Russell. The assay is described as above.
Description: as §1

The subject of assay [4] is S. sonnei MB 11967. Put plainly: Antibacterial activity, broth MIC. Conditions: Shigella sonnei, MB11967, compound alone. From the text: (§2) The antibacterial activity of a number of compounds described in the foregoing Examples against a number of organisms is shown in Tables 1 and 10.
For assay [5], the system named is S. pneumoniae CN 33. The assay can be described thus: Antibacterial activity, broth MIC. Conditions: Streptococcus pneumoniae, CN33, compound alone.
Description: as §2

Assay [6] concerns E. coli 0111. The assay can be described thus: Antibacterial activity, broth MIC. To be noted: Escherichia coli, compound alone.
Description: as §2

The subject of assay [7] is P. aeruginosa A. Put plainly: Antibacterial activity, broth MIC. To be noted: Pseudomonas aeruginosa, compound alone.
Description: as §2

Assay [8] relates to S. aureus 1517. The assay can be described thus: Antibacterial activity, broth MIC. Conditions: Staphylococcus aureus, compound alone.
Description: as §2

In assay [9] the test system is S. aureus Oxford. The assay can be described thus: Antibacterial activity, broth MIC. To be noted: Staphylococcus aureus, compound alone.
Description: as §2

Assay [10] has as its system E. coli JT 39 R^+. Put plainly: Antibacterial activity, broth MIC. Conditions: Escherichia coli; compound alone, broth; read-out: Broth MIC.
Description: as §2

Assay [11] deals with S. marcescens US 20. Put plainly: Antibacterial activity, broth MIC. To be noted: Serratia marcescens, US20; compound alone, broth; read-out: Broth MIC.
Description: as §2

Assay [12] concerns S. pyogenes CN 10. The assay can be described thus: Antibacterial activity, broth MIC. To be noted: Streptococcus pyogenes, CN10, compound alone.
Description: as §2

In assay [13] the test system is P. morganii I 580. The assay can be described thus: Antibacterial activity, broth MIC. To be noted: Morganella morganii, I580, compound alone.
Description: as §2

Assay [14] has as its system K. aerogenes A. The assay can be described thus: Antibacterial activity, broth MIC. To be noted: Klebsiella aerogenes; compound alone, broth; read-out: Broth MIC.
Description: as §2

Assay [15] relates to P. rettgeri WM 16. The assay can be described thus: Antibacterial activity, broth MIC. To be noted: Providencia rettgeri, WM16, compound alone.
Description: as §2

The subject of assay [16] is C. freundii E 8. The assay can be described thus: Antibacterial activity, broth MIC. Conditions: Citrobacter freundii, E8; compound alone, broth; read-out: Broth MIC.
Description: as §2

The test system of assay [17] is P. vulgaris WO 91. The assay can be described thus: Antibacterial activity, broth MIC. Conditions: Proteus vulgaris, WO91, compound alone.
Description: as §2

Assay [18] concerns P. mirabilis 977. Put plainly: Antibacterial activity, broth MIC. To be noted: Proteus mirabilis, compound alone.
Description: as §2

Assay [19] concerns S. aureus Russell. The assay can be described thus: Antibacterial activity, broth MIC. Conditions: Staphylococcus aureus, compound alone.
Description: as §2

The test system of assay [20] is S. faecalis I. The assay can be described thus: Antibacterial activity, broth MIC. Conditions: Enterococcus faecalis; compound alone, broth; read-out: Broth MIC.
Description: as §2

Assay [21] concerns S. typhimurium CT 10. Put plainly: Antibacterial activity, broth MIC. Conditions: Salmonella enterica, compound alone.
Description: as §2

For assay [22], the system named is E. cloacae N 1. The assay can be described thus: Antibacterial activity, broth MIC. Conditions: Enterobacter cloacae, N1, compound alone.
Description: as §2

In assay [23] the test system is E. cloacae T 153. Put plainly: β-Lactamase inhibitory activity: antibiotic MIC alone or in combination. To be noted: Enterobacter cloacae, T153; amoxycillin alone.
In assay [24] the test system is E. coli 0111. The assay is described as above.
Description: as §1

Assay [25] deals with P. aeruginosa A. The assay is described as above. Conditions: Pseudomonas aeruginosa; amoxycillin alone; read-out: Amoxycillin MIC.
Description: as §1

Assay [26] deals with P. morganii 1580. Described as above.
Description: as §1

The subject of assay [27] is P. aeruginosa Dalgleish. The description is as above. To be noted: Pseudomonas aeruginosa; amoxycillin alone; read-out: Amoxycillin MIC.
Description: as §1

Assay [28] deals with P. rettgeri WM16. The assay is described as above.
Description: as §1

The subject of assay [29] is P. vulgaris WO91. Described as above.
Description: as §1

The test system of assay [30] is E. coli JT39R+. Described as above.
Description: as §1

Assay [31] concerns C. freundii E8. The description is as above.
Description: as §1

Assay [32] deals with K. aerogenes I112. The description is as above.
Description: as §1

In assay [33] the test system is E. coli JT410 C+. The assay is described as above. To be noted: amoxycillin alone.
Description: as §1

In assay [34] the test system is K. aerogenes Ba95R+. The description is as above. Conditions: Klebsiella aerogenes, read-out: Amoxycillin MIC.
Description: as §1

For assay [35], the system named is E. coli JT20R+. The description is as above. To be noted: Escherichia coli, read-out: Amoxycillin MIC.
Description: as §1

The subject of assay [36] is C. freundii B10R+. The description is as above. Conditions: Citrobacter freundii, read-out: Amoxycillin MIC.
Description: as §1

In assay [37] the test system is P. mirabilis 889. Described as above. To be noted: Proteus mirabilis, 889, amoxycillin alone; read-out: Amoxycillin MIC.
Description: as §1

In assay [38] the test system is P. mirabilis 977. Described as above. To be noted: Proteus mirabilis, 977, amoxycillin alone; read-out: Amoxycillin MIC.
Description: as §1

For assay [39], the system named is E. cloacae N1. Described as above. To be noted: Enterobacter cloacae, N1, amoxycillin alone; read-out: Amoxycillin MIC.

Values joined by “and” are separate entries in the source; they are usually repeats but may differ in a detail not shown here. Identical values can stand only once. Bounds are passed on as bounds.

For `C/C=C1/C(=O)N2C(C(=O)O)=C(SCC)SC12` (racemic) [Compound 27, (5RS)-Sodium(Z)-6-Ethylidene-2-ethylthiopenem-3-carboxylate], in assay [1], the “Effect on MIC of amoxycillin, cephaloridine, ticarcillin and apalcillin” value is recorded as “marked decrease in the MIC”. For the same compound, the “Inhibition by compound alone (footnote)” value in assay [2] was “inhibitory”; in [3] (compound alone, 5.0 μg/ml), “inhibitory”. Besides, the MIC is 31 µg/mL in assay [4]; 2 µg/mL in [5]; 31 µg/mL in [6]; > 500 µg/mL in assay [7]; 16 µg/mL in assay [8]; 2 µg/mL in assay [9]. The MIC was found to be 16 µg/mL in assay [10]; 62 µg/mL in assay [11]; 4 µg/mL in assay [12]; 31 µg/mL in assay [13]; 16 µg/mL in [14]; 62 µg/mL in [15]. Moreover, the minimal inhibitory concentration (MIC) in assay [16] stood at 31 µg/mL; in [17] it was 31 µg/mL; in assay [18], 31 µg/mL; in assay [19], 4 µg/mL; in assay [20] it was 250 µg/mL; in assay [21], 16 µg/mL. The MIC in assay [22] is 31 µg/mL.

For `CC1(C)S[C@@H]2[C@H](NC(=O)[C@H](N)c3ccc(O)cc3)C(=O)N2[C@H]1C(=O)O` [Amoxycillin], the MIC in [23] is 1000 µg/mL; in assay [24] (Escherichia coli, 0111, amoxycillin alone, read-out: Amoxycillin MIC), 10 µg/mL; in [25], > 1000 µg/mL; in [26] (Morganella morganii, 1580, amoxycillin alone, read-out: Amoxycillin MIC), 1000 µg/mL; in [27], > 1000 µg/mL; in [28] (Providencia rettgeri, WM16, amoxycillin alone, read-out: Amoxycillin MIC), 1000 µg/mL. For the same compound, the MIC is > 1000 µg/mL in assay [29] (Proteus vulgaris, WO91, amoxycillin alone, read-out: Amoxycillin MIC); > 1000 µg/mL in assay [30] (Escherichia coli, read-out: Amoxycillin MIC, amoxycillin alone); 250 µg/mL in assay [31] (Citrobacter freundii, E8, amoxycillin alone, read-out: Amoxycillin MIC); 500 µg/mL in assay [32] (Klebsiella aerogenes, I112, read-out: Amoxycillin MIC, amoxycillin alone); 250 µg/mL in [33] (Escherichia coli, read-out: Amoxycillin MIC); > 1000 µg/mL in assay [34]. In addition, the minimum inhibitory concentration (MIC) in assay [35] is > 1000 µg/mL; in assay [36] it was > 1000 µg/mL; in [37], > 1000 µg/mL; in [38], 2.5 µg/mL; in [3] (Staphylococcus aureus, amoxycillin alone, read-out: Amoxycillin MIC) it was 100 µg/mL; in assay [39] it was 500 µg/mL. For the same compound, the “Amoxycillin MIC” value is 5 µg/mL and 5.0 µg/mL in [24] (amoxycillin alone); > 1000 µg/mL in [26] (amoxycillin alone); 500 µg/mL in [28] (amoxycillin alone); 1000 µg/mL in assay [29] (amoxycillin alone); 1000 µg/mL in assay [30] (amoxycillin alone); 500 µg/mL in assay [31] (amoxycillin alone). The figures for the “Amoxycillin MIC” value in assay [32] (amoxycillin alone) and in assay [33] were 250 µg/mL and 500 µg/mL, respectively.
